Reference: US20020086278A1, “CHROMOGENIC MEDIA CONTAINING BLOOD OR HEMIN” (priority 1999, published 2002)
Structures can show the parent of a compound that is named as a salt.

Assays:
S pyogenes (stpy) = test: Example 3: colony color on chromogenic TSA II with 5% sheep blood (chromogen in medium); assay type: cell-based; conditions: for Colony Color: 21 h
S. milleri (stmi) = test: as above; assay type: cell-based
Candida albicans (caal) = test: as above; assay type: cell-based; conditions: for Colony Color: caal 10231, 24 h
[1] = tested on: Aeromonas hydrophilia (aehy); test: as above; assay type: cell-based; conditions: for Colony Color: CO2, 21 h
S. agalactiae 12386 = test: Example 2: effect of incubation conditions on colony color formation; assay type: cell-based, Streptococcus agalactiae
[2] = tested on: Pseudomonas aeruginosa (psae); test: Example 3: colony color on chromogenic TSA II with 5% sheep blood (chromogen in medium); assay type: cell-based; conditions: for Colony Color: CO2, 21 h
[3] = tested on: Branhamella catarrhalis (brca); test: as above; assay type: cell-based; conditions: brca 25238; CO2; 21 h
[4] = tested on: Branhamella catarrhalis 25238; test: Example 1: growth and colony color on plates surface-spread with chromogen; assay type: cell-based
[5] = tested on: Serratia marcescens (sema); test: Example 3: colony color on chromogenic TSA II with 5% sheep blood (chromogen in medium); assay type: cell-based
[6] = tested on: Staphylococcus Coag Neg (step); test: as above; assay type: cell-based; conditions: 21 h
E. faecium (enfu) = test: as above; assay type: cell-based; conditions: for Colony Color: enfu 49032, 21 h
[7] = Precipitate of chromogen on pre-plated media; assay type: physicochemical; conditions: 50 μl DMSO solution on pre-plated media
Experimental: 50 μl of each chromogen solution was added to the surface of each of the following pre-plated media (one chromogen solution per plate):
The solution was dispersed using a spreader and allowed to dry 3-4 hours in a hood.

Group B Strep. 12386 = test: Example 1: growth and colony color on plates surface-spread with chromogen; assay type: cell-based; conditions: for Color / Growth: Group B Strep 12386
[8] = tested on: Streptococcus agalactiae (stag); test: Example 3: colony color on chromogenic TSA II with 5% sheep blood (chromogen in medium); assay type: cell-based
[9] = tested on: Streptococcus pneumoniae 6303; test: Example 1: growth and colony color on plates surface-spread with chromogen; assay type: cell-based
N. gonorrhoeae 35201 = test: as above; assay type: cell-based; conditions: Summary of Table I; N. gonorrhoeae 35201
[10] = tested on: Entercoccus faecalis (enfa); test: Example 3: colony color on chromogenic TSA II with 5% sheep blood (chromogen in medium); assay type: cell-based; conditions: for Colony Color: 21 h
[11] = tested on: Klebsiella pneumoniae (klpn); test: as above; assay type: cell-based; conditions: CO2, 21 h
[12] = tested on: Gardnerella vaginalis 14019; test: Example 1: growth and colony color on plates surface-spread with chromogen; assay type: cell-based; conditions: Summary of Table I; G. vaginalis 14014
S. pneumoniae (stpn) = test: Example 3: colony color on chromogenic TSA II with 5% sheep blood (chromogen in medium); assay type: cell-based
Salmonella spp. (sasp) = assay type: cell-based
cakr 34135 = test: Example 3: colony color on chromogenic TSA II with 5% sheep blood (chromogen in medium); assay type: cell-based; conditions: CO2, 21 h
[13] = chromogenic TSA II with 5% Sheep Blood, 0.1 g/l
[14] = chromogenic TSA II with 5% Sheep Blood, 0.1 g/l, 3 strains tested
[15] = chromogenic TSA II with 5% Sheep Blood, 0.1 g/l, 1 strain tested
[16] = Summary of Table I, Group B Strep. 12386
[17] = chromogenic TSA II with 5% Sheep Blood, 0.1 g/l, 6 strains tested

O=P(O)(O)Oc1c[nH]c2cc(Cl)c(Br)cc12 [Mag-Phos, 5-Br-6-Cl-3-indolyl-phosphate, p-touidine salt]
vlp: Colony Color (S pyogenes (stpy); stpy 1027, CO2) | Colony Color (S pyogenes (stpy); stpy 1028, CO2) | Colony Color (S pyogenes (stpy); stpy 1029, CO2) | Colony Color (S pyogenes (stpy); stpy 1030, CO2)
vlgp: Colony Color (E. faecium (enfu); CO2)
0,: Colony Color (Summary) (S. pneumoniae (stpn); [17])
purple (a): Color (Group B Strep. 12386; TSA II 5SB)
purple (m): Colony Color (S. agalactiae 12386)
<<: Growth ([4]; TSA II 5SB, B. catt 25258)
db: Colony Color (S. pneumoniae (stpn); stpn 6303, air, 24 h)
lp: Colony Color (S pyogenes (stpy); stpy 19615, CO2) | Colony Color (S pyogenes (stpy); stpy 19615, air) | Colony Color (S pyogenes (stpy); stpy 49117, CO2) | Colony Color (S pyogenes (stpy); stpy 51339, CO2) | Colony Color ([6]; step 12228, air) | Colony Color ([6]; step cdc1, CO2) | Colony Color ([6]; step cdc1, air) | Colony Color ([6]; step cdc4, CO2) | Colony Color ([6]; step cdc4, air) | Colony Color [8] | Colony Color ([10]; enfa 597, CO2) | Colony Color ([10]; enfa 597, air) | Colony Color ([10]; enfa 10741, CO2) | Colony Color ([10]; enfa 12953, CO2) | Colony Color ([10]; enfa 14506, CO2) | Colony Color ([10]; enfa 29212, CO2)
Mag-phos: Substrates Producing Color (Group B Strep. 12386; [16]) | Substrates Producing Growth Inhibition ([9]; Summary of Table I, S. pneumoniae 6303) | Substrates Producing Growth Inhibition (N. gonorrhoeae 35201) | Substrates Producing Growth Inhibition [12]
Slight inhib. w/ X-: Substrates Producing Growth Inhibition (Group B Strep. 12386; [16])
0: Colony Color (S. milleri (stmi); stmi 6249, air, 21 h) | Colony Color (Candida albicans (caal); CO2) | Colony Color (Candida albicans (caal); air) | Colony Color (Summary) (Candida albicans (caal); chromogenic TSA II with 5% Sheep Blood, 0.1 g/l, 2 strains tested) | Colony Color (Summary) [2, 14] | Colony Color ([2]; psae 9027) | Colony Color ([2]; psae 15442) | Colony Color ([2]; psae 33607) | Colony Color [3] | Colony Color (Summary) [5, 15] | Colony Color ([5]; sema 13880, CO2, 21 h) | Colony Color ([6]; step 12228, CO2) | Colony Color ([6]; step cdc2, CO2) | Colony Color ([6]; step cdc2, air) | Colony Color ([6]; step cdc3, CO2) | Colony Color ([6]; step cdc3, air) | Colony Color ([11]; klpn 13883) | Colony Color ([11]; klpn 33606) | Colony Color (S. pneumoniae (stpn); stpn 1259, CO2, 21 h) | Colony Color (S. pneumoniae (stpn); stpn 1260, CO2, 21 h) | Colony Color (S. pneumoniae (stpn); stpn 1628, CO2, 21 h) | Colony Color (S. pneumoniae (stpn); stpn 6303, CO2, 24 h) | Colony Color (S. pneumoniae (stpn); stpn 6305, CO2, 24 h) | Colony Color (S. pneumoniae (stpn); stpn 6305, air, 24 h)
<growth: Growth vs. control (S. pneumoniae (stpn); [13])
somewhat insoluble: Precipitate when spread / placed on the plated media [7]
Mag-Phos: Substrates Producing Growth Inhibition ([4]; Summary of Table I, B. catarrhalis 25238)
purple: Color (Group B Strep. 12386; Choc II) | Color (Group B Strep. 12386; TSA Plain)
gp: Colony Color ([1]; aehy 7965) | Colony Color ([1]; aehy 7966)
+: Colony Color (Summary) [1, 14] | Colony Color (Summary) (E. faecium (enfu); [15]) | Colony Color (Summary) [8] | Colony Color (Summary) [10, 17] | Colony Color (Summary) (Salmonella spp. (sasp))
lgp: Colony Color (E. faecium (enfu); air) | Colony Color (cakr 34135)
<grth: Growth vs. control (S pyogenes (stpy); [13])
no growth: Growth vs. control (S. milleri (stmi); [13])
<: Growth (Group B Strep. 12386; TSA II 5SB) | Growth (Group B Strep. 12386; TSA Plain) | Growth ([9]; TSA II 5SB, S. pneu: 6303)
